Test results taken from US12569463B2, “Method for treating diabetes” (Olatec Therapeutics, Inc., priority 2020, dated 2026).

Experiment: Fasting glucose in diabetic subjects of the clinical study of oral dapansutrile capsules in NYHA II-III systolic heart failure
Assay type: in vivo, human
[1] = Day 28, 1000 mg per day oral, N = 4
[2] = Day 28, 2000 mg per day oral, N = 4
[3] = Day 28, all dapansutrile subjects pooled, N = 14

CS(=O)(=O)CCC#N [Dapansutrile, 3-methanesulfonylpropionitrile]
dose response of fasting glucose change (in words) (500 mg, 1000 mg, 2000 mg per day): trend of dose response | mean fast glucose level decrease from the baseline level (2000 mg treatment, Day 14): 43.5 mg/dL | Fasting Glucose Level, Change from Baseline, Mean (Day 14 (last day of treatment), 500 mg daily oral, diabetic patients N = 6): -20.0 mg/dL | Fasting Glucose Level, Change from Baseline, Median (Day 14, 500 mg daily oral, N = 6): -18.5 mg/dL | Fasting Glucose Level, Change from Baseline, Mean (Day 14, 1000 mg per day (500 mg twice a day) oral, diabetic patients N = 4): -16.5 mg/dL | Fasting Glucose Level, Change from Baseline, Median (Day 14, 1000 mg per day oral, N = 4): -16.5 mg/dL | Fasting Glucose Level, Change from Baseline, Mean (Day 14, 2000 mg per day (500 mg 4 times a day) oral, diabetic patients N = 4): -43.5 mg/dL | Fasting Glucose Level, Change from Baseline, Median (Day 14, 2000 mg per day oral, N = 4): -47.5 mg/dL | Fasting Glucose Level, Change from Baseline, Mean (Day 14, all dapansutrile subjects pooled (500-2000 mg), N = 14): -25.7 mg/dL | Fasting Glucose Level, Change from Baseline, Median (Day 14, all dapansutrile subjects pooled, N = 14): -32.5 mg/dL | decrease of glucose level from the baseline level (in words) (Day 14, all dapansutrile-treated subjects, p value of 0.029): statistically significant decrease | Fasting Glucose Level, Change from Baseline, Mean (Day 28 (14 days after last treatment), 500 mg daily oral, N = 6): 25.8 mg/dL | drug effect on fasting glucose (in words) (Day 28, 14 days after the last treatment): the drug effect was gone | Fasting Glucose Level, Change from Baseline, Median (Day 28, 500 mg daily oral, N = 6): -1.5 mg/dL | Fasting Glucose Level, Change from Baseline, Mean [1]: 7.3 mg/dL | Fasting Glucose Level, Change from Baseline, Median [1]: -7.0 mg/dL | Fasting Glucose Level, Change from Baseline, Mean [2]: -18.0 mg/dL | Fasting Glucose Level, Change from Baseline, Median [2]: -21.5 mg/dL | Fasting Glucose Level, Change from Baseline, Mean [3]: 8.0 mg/dL | Fasting Glucose Level, Change from Baseline, Median [3]: -8.0 mg/dL
